The text below walks through data of PMC10232370 (2023).

The subject of assay [1] is Cy5-5'GAU/3'CUA mimic (A bulge to AU pair) (RNA, hairpin) GUAAUGAUUACGAAAGUAAUCAUUGC
Kind of assay: microscale thermophoresis. As to conditions: no saturable binding.

Assay [2] has as its system Cy5-2DCS model with two A bulges (RNA, mismatch bulge abasic) GGGUUUAAUAGAUACGAAAGUACUAAUUGGAUCC
Kind of assay: microscale thermophoresis. Background: MST reads how a fluorescent partner responds to local heating, with and without ligand.

The subject of assay [3] is Cy5-2DCS model fully base paired (RNA, hairpin) GGGUUUAAUUAGAUACGAAAGUAUCUAAUUGGAUCC
Description: microscale thermophoresis. Particulars: no saturable binding.

Assay [4] has as its system pre-miR-155 A bulge with 2-aminopurine (2AP) (RNA, mismatch bulge abasic, 2-aminopurine in place of the bulged A) GUAAUGAUUACGAAAGUAACAUUGC
Kind of assay: 2-aminopurine fluorescence titration.

For assay [5], the system named is Cy5-5'GAU/3'C_A mimic (minimized pre-miR-155 A bulge) (RNA, mismatch bulge abasic) GUAAUGAUUACGAAAGUAACAUUGC
Description: microscale thermophoresis.

The subject of assay [6] is Cy5-labelled JUN IRES model (RNA, mRNA element) GCAGUAUAGGAAACUAACUGC
Kind of assay: Cy5 fluorescence titration.

In assay [7] the test system is JUN IRES fully paired control (A bulge to AU pair), Cy5 (RNA, mRNA element) GCAGUAUAGGAAACUAUACUGC
Description: Cy5 fluorescence titration. Particulars: no saturable binding.

The test system of assay [8] is JUN IRES A bulge model with 2AP (5'UAU/3'A_A) (RNA, mRNA element, 2-aminopurine in place of the bulged A) GCAGUAUAGGAAACUAACUGC
Kind of assay: 2-aminopurine fluorescence titration.

For assay [9], the system named is Cy5-labelled MYC IRES 5'UUCG/3'ACCC 2x2 internal loop model (RNA, mRNA element) GGGGGCUUCGCCUCUGGCCCAGCCCUC
Kind of assay: Cy5 fluorescence titration.

Assay [10] has as its system MYC IRES fully paired control RNA (RNA, mRNA element) GGGGGCUUCGCCUCUGGCGAAGCCCUC
Kind of assay: Cy5 fluorescence titration.

Assay [11] deals with pre-miR-155 (wild type) (RNA, miRNA) GGCUGUUAAUGCUAAUCGUGAUAGGGGUUUUUGCCUCCAACUGACUCCUACAUAUUAGCAUUAACAG
Description: competition with 2AP-labelled RNA. Particulars: RIBOTAC 5 µM, 2AP-labelled A bulge RNA 1 µM; unlabelled pre-miR-155 as competitor.

Assay [12] deals with pre-miR-155 +U49 mutant (A bulge to AU pair) (RNA, miRNA) GGCUGUUAAUGCUAAUCGUGAUAGGGGUUUUUGCCUCCAACUGACUCCUAUCAUAUUAGCAUUAACAG
Description: competition with 2AP-labelled RNA. As to conditions: RIBOTAC 5 µM, 2AP-labelled A bulge RNA 1 µM; mutant does not compete.

Assay [13] concerns JUN IRES 2AP control RNA (bulge converted to base pair) (RNA, mRNA element, 2-aminopurine (position not given)) GCAGUAUAGGAAACUAUACUGC
Kind of assay: 2-aminopurine fluorescence titration.

Read-outs that look alike come from different tables or passages of the source.

The term Kd denotes a measure of binding affinity in units of concentration. One may read the EC50 as the concentration giving half of the maximal effect. High values mean weaker potency, low ones greater potency.

Turning to `CCCCCCCCCCCc1c(CCCCCCCCCCC)[n+](-c2c(C(C)C)cccc2C(C)C)cn1-c1c(C(C)C)cccc1C(C)C`, the binding entry in assay [1] and in assay [3] was “no” throughout. Also, the Kd stood at 1200 ± 100 nM in assay [2] and 800 ± 100 nM in assay [5]. Also, in assay [4] (apparent, error printed as 1.2), the “Kd,app” value is 3900 ± 1000 nM.

With `CCCNC(=O)CCc1c(C)n(-c2c(C(C)C)cccc2C(C)C)c[n+]1-c1c(C(C)C)cccc1C(C)C`, the binding result in assay [4] (similar affinity to C1) is “yes”. In [5] (similar affinity to C1), this compound displayed a Kd of 1100 ± 100 nM.

In assay [6], `CCOC(=O)C1=C(Nc2ccccc2)S/C(=C\c2ccc(O)c(OCCOCCOCCOCCNC(=O)CCNc3nc(Nc4ccc(C5=NCCN5)cc4)nc(Nc4ccc(C5=NCCN5)cc4)n3)c2)C1=O` gave a dissociation constant Kd of 400 ± 100 nM. The binding result in [7] is listed as “no”. The 50% effective concentration (EC50) in assay [8] came out at 3500 ± 900 nM.

Take `CCOC(=O)C1=C(Nc2ccccc2)S/C(=C\c2ccc(O)c(OCCOCCOCCOCCNC(=O)c3cc(NC(=O)Nc4ccc(C5=NCCN5)cc4)cc(NC(=O)Nc4ccc(C5=NCCN5)cc4)c3)c2)C1=O`: in assay [9], the dissociation constant Kd worked out at 900 ± 200 nM. Also, the binding entry in assay [10] (no saturable binding) is on record as “no”.

For the compound `CCOC(=O)C1=C(Nc2ccccc2)S/C(=C\c2ccc(OCCOCCOCCOCCNC(=O)CCNc3nc(Nc4ccc(C5=NCCN5)cc4)nc(Nc4ccc(C5=NCCN5)cc4)n3)c(O)c2)C1=O`, the Kd in assay [6] was found to be 500 ± 200 nM. Further, the binding result in assay [7] is “no”. In [8], this compound displayed an EC50 of 1800 ± 500 nM.

In assay [11], `CCOC(=O)C1=C(Nc2ccccc2)S/C(=C\c2ccc(OCCOCCOCCOCCNC(=O)CCc3c(C)n(-c4c(C(C)C)cccc4C(C)C)c[n+]3-c3c(C(C)C)cccc3C(C)C)c(O)c2)C1=O` had a Kd of 2200 ± 900 nM. In addition, in [12], the binding result is reported as “no”.

`CCOC(=O)C1=C(Nc2ccccc2)S/C(=C\c2ccc(OCCOCCOCCOCCNC(=O)c3cc(NC(=O)Nc4ccc(C5=NCCN5)cc4)cc(NC(=O)Nc4ccc(C5=NCCN5)cc4)c3)c(O)c2)C1=O` showed a Kd in assay [9] of 1100 ± 100 nM. The binding entry in [10] (no saturable binding) is given as “no”.

Take `CNc1nc(Nc2ccc(C3=NCCN3)cc2)nc(Nc2ccc(C3=NCCN3)cc2)n1`: the Kd in assay [6] was found to be 3200 ± 2000 nM. Also, the figures for the EC50 in assay [8] and in [13] were 1100 ± 200 nM and more than 50000 nM, respectively.

`O=C(Nc1ccc(C2=NCCN2)cc1)Nc1cc(NC(=O)Nc2ccc(C3=NCCN3)cc2)cc(C(=O)O)c1`: in [9], the Kd was found to be 2300 ± 1000 nM. Further, the binding result in assay [10] is listed as “no”.
